Laboratory results reported in US10906876B2, “Tetrahydroisoquinolines as selective NADPH oxidase 2 inhibitors” (University of Pittsburgh—Of the Commonwealth System of …, priority 2013, dated 2021).

Experiments:
Bovine milk XO = target: T1, Bovine milk XO (Bos taurus, UniProt P80457); experiment: Xanthine oxidase assay (Amplex Red); assay type: biochemical; settings: compounds at 25 μM and 50 μM (FIG. 4)
T1 construct: Bovine milk XO (grade 1, ammonium sulfate suspension; Sigma-Aldrich); purchased Sigma-Aldrich; host or cells: bovine milk
Method: Bovine milk XO (grade 1, ammonium sulfate suspension; Sigma-Aldrich) was first desalted using PD-10 columns (Sephadex G-25, GE Healthcare Biosciences, Piscataway, N.J.) equilibrated in PBS. XO activity was assayed by measuring H2O2 production using the Amplex® Red assay. Reaction mixture contained: 0.02 U/mL XO, 25 mM Hepes, pH 7.4, containing 0.12 M NaCl, 3 mM KCl, 1 mM MgCl2, 0.1 mM Amplex® Red, and 0.32 U/mL of horse radish peroxidase (HRP), reaction was initiated by addition of 1 mM hypoxanthine. Fluorescence was quantified over time using a Biotek Synergy 4 Hybrid Multi-Mode Microplate Reader.
Data are expressed as % of vehicle control.

[1] = tested on: human pulmonary artery endothelial cells (HPAEC); experiment: Superoxide production of HPAEC treated with high glucose; assay type: cell-based; settings: 25 mM glucose 24 hr, 25 μM compound
Method: (§1) Cos-Nox2, Cos-Nox1, human fibroblasts were cultured in DMEM, 10% FBS-supplemented media, human pulmonary artery endothelial cells were cultured in EBM2media containing growth factors (Lonza) and rat neonatal cardiomyocytes were cultured in DMEM/F12 (50/50) media supplemented with 5% horse serum, 100 μM BrdU and Insulin-Transferrin-Selenium (ITS, Gibco).
Superoxide (O2^•−) production from cell homogenates was calculated from the initial linear rate (over 10 min) of SOD-inhibitable cytochrome c reduction quantified at 550 nm using the extinction coefficient of 21.1 mM-1 cm-1 (Biotek Synergy 4 Hybrid Multi-Mode Microplate Reader). The oxidase assay buffer consisted of 65 mM sodium phosphate buffer (pH 7.0), 1 mM EGTA, 10 μM FAD, 1 mM MgCl2, 2 mM NaN3 and 0.2 mM cytochrome C.
Compounds 11g and 11h subsequently were tested in parenchymal cell lines where more than one Nox could be present and activated. Human pulmonary artery endothelial cells (HPAEC) were treated with high glucose (25 mM) for 24 hr in the presence or absence of the compounds. […] Under these conditions both compounds 11g and 11h attenuated the high glucose-stimulated superoxide production (FIG. 9).

[2] = tested on: human pulmonary artery endothelial cells (HPAEC); experiment: ROS production of HPAEC treated with angiotensin II; assay type: cell-based; settings: angiotensin II 24 hrs, 25 μM compound, preliminary data
Method: as §1

human fibroblasts = experiment: PMA-stimulated ROS production by human fibroblasts; assay type: cell-based; settings: 10 μM compound
Method: as §1
Compounds 11g and 11h also were evaluated for potential inhibitory activity in phorbol ester (PMA)-stimulated ROS production by human fibroblasts. As expected PMA, an activator of protein kinase C, stimulated superoxide production. This effect was attenuated by both compounds at a concentration of 10 μM (FIG. 11).

Nox1 hybrid system = target: T2, Nox1 hybrid system (Homo sapiens, UniProt Q9Y5S8); experiment: ROS production of transiently Nox1 hybrid system-transfected Cos cells treated with PMA; assay type: cell-based; settings: 10 μM compound
T2 construct: Plasmids encoding full-length human cDNAs for Nox1 (pcDNA3.1-hNox1); expressed in transfected cells; host or cells: Cos cells, transient transfection
T2 sequence (Q9Y5S8 1-564): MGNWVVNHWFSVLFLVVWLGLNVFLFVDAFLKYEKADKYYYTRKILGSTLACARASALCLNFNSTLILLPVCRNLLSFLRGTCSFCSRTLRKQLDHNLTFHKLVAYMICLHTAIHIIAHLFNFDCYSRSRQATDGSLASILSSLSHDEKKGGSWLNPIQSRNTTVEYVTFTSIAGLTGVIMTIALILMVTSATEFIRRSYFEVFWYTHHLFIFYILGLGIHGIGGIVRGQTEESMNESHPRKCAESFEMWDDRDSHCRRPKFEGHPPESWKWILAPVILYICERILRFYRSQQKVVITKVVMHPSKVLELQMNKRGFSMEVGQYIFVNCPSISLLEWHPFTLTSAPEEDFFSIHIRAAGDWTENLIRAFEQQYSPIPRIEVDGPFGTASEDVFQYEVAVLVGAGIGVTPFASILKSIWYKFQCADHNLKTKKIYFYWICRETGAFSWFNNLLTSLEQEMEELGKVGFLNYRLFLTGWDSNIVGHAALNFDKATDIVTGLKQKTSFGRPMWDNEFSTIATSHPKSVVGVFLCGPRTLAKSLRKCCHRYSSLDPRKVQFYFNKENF
Method: Cell transfection was carried out using Lipofectamine LTX and Plus reagent (Invitrogen, Carlsbad, Calif., USA), according to the manufacturer's instructions. COS-22 cells were transiently co-transfected with pcDNA 3.1-hNox1, pCMVsport 6-hNOXA1 and pcDNA3.1-hNoxO1 (COS-Nox1/NOXO1/NOXA1 cells) or with pcDNA3.1/Hygro-hNox4 (COS-Nox4 cells). Cells were used 24 hr after transfection. Adherent cells were harvested by incubating with 0.05% trypsin/EDTA for 5 min at 37° C. Following addition of DMEM/10% FBS to neutralize the trypsin, the cells were pelleted by centrifugation at 1100×g for 5 min at 4° C. and used for the experiments.
Since p47^phox activation is important not only for Nox2 activity but also for Nox1 hybrid system present mainly in human endothelial cells, the effect of compounds 11g and 11h on ROS production of transiently Nox2-transfected (FIG. 13) or Nox1 hybrid system-transfected Cos cells (FIG. 14) treated with phorbol ester (PMA) was evaluated.

[3] = tested on: rat neonatal cardiomyocytes; experiment: Hypertrophy of rat neonatal cardiomyocytes treated with high glucose; assay type: cell-based; settings: 25 mM glucose, 25 μM compound
Method: as §1
Hypertrophy was assessed by measurement of cardiomyocytes length using ImageJ public domain software (developed by the National Institutes of Health).
To evaluate the pre-clinical potential of compounds 11g and 11h, the effects of high levels of glucose, which induce the generation of reactive oxygen species in cardiomyocytes and may contribute to the development of cardiomyopathy in diabetes, were evaluated. […] Furthermore, both compound 11g and compound 11h were able to reduce cardiomyocyte hypertrophy associated with high glucose challenge (FIG. 16).

T1 sequence (P80457 whole entry): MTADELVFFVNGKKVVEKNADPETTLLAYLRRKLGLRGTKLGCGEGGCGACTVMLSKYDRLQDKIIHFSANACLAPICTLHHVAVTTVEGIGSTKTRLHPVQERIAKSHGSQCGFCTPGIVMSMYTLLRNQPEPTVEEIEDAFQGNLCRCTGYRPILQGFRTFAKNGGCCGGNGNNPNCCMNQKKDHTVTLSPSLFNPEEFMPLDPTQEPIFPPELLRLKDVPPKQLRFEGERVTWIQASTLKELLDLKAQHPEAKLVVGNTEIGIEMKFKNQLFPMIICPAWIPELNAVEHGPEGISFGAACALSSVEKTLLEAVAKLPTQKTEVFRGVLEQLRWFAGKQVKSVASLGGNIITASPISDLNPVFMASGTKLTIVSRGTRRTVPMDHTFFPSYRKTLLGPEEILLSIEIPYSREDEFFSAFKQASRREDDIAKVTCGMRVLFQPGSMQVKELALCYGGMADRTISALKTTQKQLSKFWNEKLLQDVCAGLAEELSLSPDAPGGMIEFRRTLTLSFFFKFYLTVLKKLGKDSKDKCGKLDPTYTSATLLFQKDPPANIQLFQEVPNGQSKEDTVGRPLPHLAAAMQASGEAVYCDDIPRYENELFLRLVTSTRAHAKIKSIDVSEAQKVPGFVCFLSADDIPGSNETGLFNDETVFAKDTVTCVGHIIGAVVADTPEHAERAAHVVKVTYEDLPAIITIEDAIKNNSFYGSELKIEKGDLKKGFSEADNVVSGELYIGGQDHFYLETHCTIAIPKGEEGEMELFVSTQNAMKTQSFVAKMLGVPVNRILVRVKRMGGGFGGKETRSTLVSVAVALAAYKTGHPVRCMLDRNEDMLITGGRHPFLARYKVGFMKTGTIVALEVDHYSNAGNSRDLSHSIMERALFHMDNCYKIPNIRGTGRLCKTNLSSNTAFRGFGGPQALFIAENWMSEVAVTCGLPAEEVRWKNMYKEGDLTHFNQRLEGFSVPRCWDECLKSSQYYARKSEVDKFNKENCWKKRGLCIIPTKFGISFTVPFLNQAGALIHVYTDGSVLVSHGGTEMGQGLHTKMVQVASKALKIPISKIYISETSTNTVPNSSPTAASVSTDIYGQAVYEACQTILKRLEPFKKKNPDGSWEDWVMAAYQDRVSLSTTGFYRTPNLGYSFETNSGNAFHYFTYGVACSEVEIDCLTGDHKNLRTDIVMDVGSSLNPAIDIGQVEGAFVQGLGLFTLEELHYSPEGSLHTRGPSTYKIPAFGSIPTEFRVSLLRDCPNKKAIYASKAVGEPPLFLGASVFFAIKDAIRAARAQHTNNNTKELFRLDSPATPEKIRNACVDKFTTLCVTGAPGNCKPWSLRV

| Effect on ROS production by xanthine oxidase (Bovine milk XO) | PMA-stimulated ROS production, Nox1 hybrid system-transfected Cos cells (Nox1 hybrid system) | Compound | High glucose-stimulated superoxide production [1] | AngII-stimulated ROS production [2] | PMA-stimulated superoxide production (human fibroblasts) | Cardiomyocyte hypertrophy with high glucose challenge [3] |
| --- | --- | --- | --- | --- | --- | --- |
| virtually no effect | did not significantly inhibit | C=C(C)CC1C2c3c(Br)cccc3C(CC2(C)C)N1Cc1cccs1 (racemic) [Compound 11h, (±)-(1S,4R,9S)-5-Bromo-3,3-dimethyl-9-(2-methylallyl)-10-(thiophen-2-ylmethyl)-1,2,3,4-tetrahydro-1,4-(epiminomethano)naphthalene] | attenuated | differential effect | attenuated | reduce |
| virtually no effect | inhibited | C=C(C)CC1C2c3c(Br)cccc3C(CC2(C)C)N1CCCCC (racemic) [Compound 11g, (±)-(1S,4R,9S)-5-Bromo-3,3-dimethyl-9-(2-methylallyl-10-pentyl-1,2,3,4-tetrahydro-1,4-(epiminomethano)naphthalene] | attenuated | differential effect | attenuated | reduce |
